Results from article PMC8154124, “Design, Synthesis, Anticancer Evaluation, Enzymatic Assays, and a Molecular Modeling Study of Novel Pyrazole–Indole Hybrids” (ACS Omega, 2021).

Tests used:
[1] = system: human lung carcinoma (A549); experiment: MTT cytotoxicity assay, A549; format: cell-based; conditions: 48 h, mean ± SD
Protocol: (§1) The cells of human liver carcinoma (HepG2), human breast adenocarcinoma (MCF-7), human colorectal carcinoma (HCT-116), and human lung carcinoma (A549) were purchased from the American Type Culture Collection (Rockville, MD). All cells were maintained in a Dulbecco’s modified Eagle’s medium (DMEM), which was supplemented with 10% of heat-inactivated fetal bovine serum (FBS) and 100 U/mL penicillin and streptomycin each. The cells were grown at 37 °C in a humidified atmosphere of 5% CO2.
(§2) The cytotoxicity activities on the human liver carcinoma (HepG2), human breast adenocarcinoma (MCF-7), human colorectal carcinoma (HCT-116), and human lung carcinoma (A549) cell lines were estimated employing the 3-(4,5-dimethyl-2-thiazolyl)-2,5-diphenyl-2H-tetrazolium bromide (MTT) assay, which was grounded on the reduction of the tetrazolium salt by mitochondrial dehydrogenases in viable cells.[51],[52] The cells were dispensed in a 96-well sterile microplate (3 × 10^4 cells/well), followed by their incubation at 37 °C with a series of different concentrations of 10 μL of each compound or doxorubicin (positive control, in DMSO) for 48 h in a serum-free medium prior to the MTT assay. Subsequently, the media were carefully removed, and 40 μL of MTT (2.5 mg/mL) was added to each well and then incubated for an additional 4 h. Purple formazan dye crystals were solubilized by the addition of 200 μL of DMSO. The absorbance was measured at 570 nm using a SpectraMax Paradigm Multi-Mode microplate reader. The relative cell viability was expressed as the mean percentage of viable cells relative to the untreated control cells. All experiments were conducted in triplicate and were repeated on three different days. All of the values were represented as mean ± standard deviation (SD). The IC50s were determined by the SPSS probit analysis software program (SPSS Inc., Chicago, IL).

[2] = system: human colorectal carcinoma (HCT-116); experiment: MTT cytotoxicity assay, HCT-116; format: cell-based; conditions: 48 h, mean ± SD
Protocol: as §1, §2

[3] = system: human liver carcinoma (HepG2); experiment: MTT cytotoxicity assay, HepG2; format: cell-based; conditions: 48 h, mean ± SD
Protocol: as §1, §2

[4] = system: human breast adenocarcinoma (MCF-7); experiment: MTT cytotoxicity assay, MCF-7; format: cell-based; conditions: MCF7, 48 h, mean ± SD
Protocol: as §1, §2

Row | Compound | IC50 [1] [µM] | IC50 [2] [µM] | IC50 [3] [µM] | IC50 [4] [µM] | melting point [°C]
1 | COc1ccc(Nc2n[nH]c(N=C3C(=O)N(C)c4ccccc43)c2C(=O)Nc2ccc(C)cc2)cc1 [5e, 3-(4-Methoxyphenylamino)-5-(1-methyl-2-oxoindolin-3-ylideneamino)-N-(4-methylphenyl)-1H-pyrazole-4-carboxamide] | 77.7 ± 5.6 | 39.9 ± 4.2 | 32 ± 3.9 | 61.8 ± 5.1 | 
2 | CCN1C(=O)C(=Nc2[nH]nc(Nc3ccccc3)c2C(=O)Nc2ccc(C)cc2)c2ccccc21 [5g, 5-(1-Ethyl-2-oxoindolin-3-ylideneamino)-3-(phenylamino)-N-(4-methylphenyl)-1H-pyrazole-4-carboxamide] | 46.8 ± 5.3 | 35.7 ± 3.9 | 27.8 ± 3.5 | 54 ± 4.9 | 
3 | CCN1C(=O)C(=Nc2[nH]nc(Nc3ccccc3)c2C(=O)Nc2ccccc2)c2ccccc21 [5f, 5-(1-Ethyl-2-oxoindolin-3-ylideneamino)-N-phenyl-3-(phenylamino)-1H-pyrazole-4-carboxamide] | 52.9 ± 4.5 | 28.9 ± 3.9 | 23.7 ± 3.1 | 42.1 ± 4.7 | 
4 | COc1ccc(Nc2n[nH]c(N=C3C(=O)N(C)c4ccccc43)c2C(N)=O)cc1 [5c, 3-(4-Methoxyphenylamino)-5-(1-methyl-2-oxoindolin-3-ylideneamino)-1H-pyrazole-4-carboxamide] | 40.7 ± 4.1 | 39.5 ± 4.5 | 32.8 ± 3.8 | 22 ± 3.5 | 265 to 267
5 | COc1ccc(Nc2n[nH]c(N=C3C(=O)N(C)c4ccccc43)c2C(=O)Nc2ccccc2)cc1 [5d, 3-(4-Methoxyphenylamino)-5-(1-methyl-2-oxoindolin-3-ylideneamino)-N-phenyl-1H-pyrazole-4-carboxamide] | 56 ± 4.1 | 54.2 ± 5.5 | 34.8 ± 3.9 | 46.4 ± 4.5 | 
6 | COc1ccc(Nc2n[nH]c(N=Cc3c[nH]c4ccccc34)c2C(=O)Nc2ccc(C)cc2)cc1 [7e, 5-((1H-Indol-3-yl)methyleneamino)-3-(4-methoxyphenylamino)-N-(4-methylphenyl)-1H-pyrazole-4-carboxamide] | 40.8 ± 4.3 | 37.4 ± 4.1 | 25.8 ± 3.5 | 16.2 ± 2.3 | 
7 | Cc1ccc(NC(=O)c2c(Nc3ccccc3)n[nH]c2N=C2C(=O)N(C)c3ccccc32)cc1 [5b, 5-(1-Methyl-2-oxoindolin-3-ylideneamino)-3-(phenylamino)-N-(4-methylphenyl)-1H-pyrazole-4-carboxamide] | 46.7 ± 4.9 | 28.1 ± 3.5 | 37.1 ± 4.3 | 48 ± 5.1 | 
8 | CCN1C(=O)C(=Nc2[nH]nc(Nc3ccc(OC)cc3)c2C(N)=O)c2ccccc21 [5h, 5-(1-Ethyl-2-oxoindolin-3-ylideneamino)-3-(4-methoxyphenylamino)-1H-pyrazole-4-carboxamide] | 41.9 ± 3.9 | 25.7 ± 4.3 | 28.2 ± 3.5 | 25.4 ± 3.9 | 269 to 271
9 | CCN1C(=O)C(=Nc2[nH]nc(Nc3ccc(OC)cc3)c2C(=O)Nc2ccc(C)cc2)c2ccccc21 [5j, 5-(1-Ethyl-2-oxoindolin-3-ylideneamino)-3-(4-methoxyphenylamino)-N-(4-methylphenyl)-1H-pyrazole-4-carboxamide] | 57 ± 4.9 | 38.9 ± 4.1 | 24.4 ± 2.9 | 63.7 ± 5.5 | 
10 | COc1cccc2c1C(=O)c1c(O)c3c(c(O)c1C2=O)C[C@@](O)(C(=O)CO)C[C@@H]3O[C@H]1C[C@H](N)[C@H](O)[C@H](C)O1 [doxorubicin, reference compound] | 58.1 ± 4.1 | 40 ± 3.9 | 24.7 ± 3.2 | 64.8 ± 4.1 | 
11 | COc1ccc(Nc2n[nH]c(N=Cc3c[nH]c4ccccc34)c2C(=O)Nc2ccccc2)cc1 [7d, 5-((1H-Indol-3-yl)methyleneamino)-3-(4-methoxyphenylamino)-N-phenyl-1H-pyrazole-4-carboxamide] | 58.7 ± 4.2 | 25.3 ± 3.5 | 27.2 ± 3.5 | 17.4 ± 2.3 | 
12 | CCN1C(=O)C(=Nc2[nH]nc(Nc3ccc(OC)cc3)c2C(=O)Nc2ccccc2)c2ccccc21 [5i, 5-(1-Ethyl-2-oxoindolin-3-ylideneamino)-3-(4-methoxyphenylamino)-N-phenyl-1H-pyrazole-4-carboxamide] | 47.8 ± 4.5 | 53.9 ± 5.7 | 26.7 ± 3.1 | 30.1 ± 4.2 | 
13 | CN1C(=O)C(=Nc2[nH]nc(Nc3ccccc3)c2C(=O)Nc2ccccc2)c2ccccc21 [5a, 5-(1-Methyl-2-oxoindolin-3-ylideneamino)-N-phenyl-3-(phenylamino)-1H-pyrazole-4-carboxamide] | 42.8 ± 4.2 | 25.7 ± 3.5 | 27.6 ± 3.1 | 28.3 ± 3.5 | 
14 | COc1ccc(Nc2n[nH]c(N=Cc3c[nH]c4ccccc34)c2C(N)=O)cc1 [7c, 5-((1H-Indol-3-yl)methyleneamino)-3-(4-methoxyphenylamino)-1H-pyrazole-4-carboxamide] | 43.4 ± 4.2 | 31.9 ± 3.8 | 35.8 ± 3.9 | 22.2 ± 3.3 | 260 to 262
